Laboratory results: patent US20070077653A1, “Modulation of cell intrinsic strain to control matrix synthesis, secretion, organization and remodeling” (MEDTRAIN TECHNOLOGIES, LLC, priority 2003, published 2007)

Assays:
gel matrix = experiment: Gel matrix contraction in a culture system; type: cell-based
[1] = test system: human tendon internal fibroblast (HTIF)-populated bioartificial tendons (BATs™); experiment: Elasticity of BATs by length recovery after maximum stretch; type: cell-based; conditions: 100 pM IL-1β
Text: In order to find a better therapeutic method for tendon/ligament repair and/or replacement, several in vitro models for engineered tendon have been developed recently (Awad et al., J. Biomed. Mater Res., 51(2), 233-240, 2000). One of them is a BioArtificial Tendon (BAT™) model system utilizing tenocyte-populated molded collagen gels (Awad et al., J. Biomed. Mater Res., 51(2), 233-240, 2000). This 3D BAT™ system allows the testing of tenocyte responses to drugs, cytokines and mechanical loading but is too weak to replace conventional grafts materials. In an attempt to modulate the material properties of the cell-gel composite, the influence of IL-1β on the elasticity of human tendon internal fibroblast (HTIF)-populated bioartificial tendons (BATs™) was investigated. IL-1β has been reported to increase the expression of matrix metalloproteinases (MMPs) and elastin. It was hypothesized that IL-1β might increase the elasticity of BATs™ by up-regulating the expression of elastin and down-regulating matrix protein (Collagen I) expression. Gene expression was quantified with quantitative RT-PCR. The elasticity of BATs™ was determined by length recovery after stretch. The influence of IL-1β on the actin cytoskeleton and integrin attachment to matrix in BATs™ was tested +/− cytochalasin D or GRGDTP, respectively.
Primary human tendon internal fibroblasts (HTIFs) were isolated from discarded human tendon tissue as described previously (Banes et al., J. Ortho Res., 6, 73-82, 1988). HTIFs from passage 2 to 4 were used in this study. […] BAT™ images were recorded with a scanner and automated imaging software, ScanFlex™ (Flexcell International Corp.). […] On day 5, BATs™ were collected, total RNA extracted with an RNeasy mini kit (QIAGen), cDNA synthesized with SuperScriptII (Invitrogen) and quantitative PCR carried out using a quantitative PCR kit from Ambion. The PCR products were separated on 2% agarose gels and the bands were quantitated in Photoshop. […] BATs™ were subjected to a maximum stretch (20% elongation, 1 Hz for 1 h) and the BAT images were recorded for 24 h after stretch.

β-actin [2] = experiment: Cytoskeleton change by rhodamine-phalloidin staining; type: cell-based, human; conditions: 100 pM IL-1β
β-actin [3] = experiment: β-actin expression by quantitative RT-PCR; type: cell-based, human; conditions: 100 pM IL-1β; for reduction of β-actin message: 24 h post addition
Description: Primary HTIFs were isolated after surgery from discarded human tendon tissue as described previously (Banes et al., J. Ortho Res., 6, 73-82, 1988). HTIFs from passage 2 to 4 were used in this study. HTIFs were allowed to attach and spread for 24 h before addition of 100 pM IL-1β. Medium was refreshed every 24 h. […] Young's modulus of HTIFs was measured by aspirating a cell into the bore of a calibrated micropipette with a calibrated vacuum source. The cell-aspiration process was videotaped for subsequent data analysis to calculate the pipette bore size, the steady state pressure required to aspirate a segment of a cell into the pipette bore and the time constant for aspiration. Cytoskeleton change was monitored by rhodamine-phalloidin staining. The expression levels of β-actin was determined by quantitative RT-PCR. Total RNA was extracted with an RNeasy mini kit (QIAGen), cDNA was synthesized with SuperScriptII (Invitrogen) and quantitative PCR was carried out using 18S rRNA as an internal control (Ambion). The PCR products were separated on 2% agarose gels and pixel intensity of the bands was quantitated in Photoshop.

MMPs 1, 2, 3 = experiment: Gene expression in BATs by quantitative RT-PCR; type: cell-based, human; conditions: 100 pM IL-1β, day 5
Description: (§1) Primary human tendon internal fibroblasts (HTIFs) were isolated from discarded human tendon tissue as described previously (Banes et al., J. Ortho Res., 6, 73-82, 1988). HTIFs from passage 2 to 4 were used in this study. BATs™ were fabricated at a cell density of 2 million cells/ml collagen gel suspension (Vitrogen). Cells were incubated at 37° C. for 24 h before addition of 100 pM IL-1β and inhibitors. BAT™ images were recorded with a scanner and automated imaging software, ScanFlex™ (Flexcell International Corp.). Medium was refreshed every 24 h. On day 5, BATs™ were collected, total RNA extracted with an RNeasy mini kit (QIAGen), cDNA synthesized with SuperScriptII (Invitrogen) and quantitative PCR carried out using a quantitative PCR kit from Ambion. The PCR products were separated on 2% agarose gels and the bands were quantitated in Photoshop. The elasticity of BATs™ was tested on day 5. BATs™ were subjected to a maximum stretch (20% elongation, 1 Hz for 1 h) and the BAT images were recorded for 24 h after stretch.

elastin = experiment: Gene expression in BATs by quantitative RT-PCR; type: cell-based, human
Description: as §1

Collagen I = experiment: Gene expression in BATs by quantitative RT-PCR; type: cell-based, human; conditions: 100 pM IL-1β, day 5
Description: as §1

[4] = test system: human tendon internal fibroblasts (HTIFs); experiment: Young's modulus of HTIFs by micropipette aspiration; type: cell-based; conditions: 100 pM IL-1β, day 5
Description: Primary HTIFs were isolated after surgery from discarded human tendon tissue as described previously (Banes et al., J. Ortho Res., 6, 73-82, 1988). HTIFs from passage 2 to 4 were used in this study. HTIFs were allowed to attach and spread for 24 h before addition of 100 pM IL-1β. Medium was refreshed every 24 h. On day 5, cells were collected for cell modulus measurement and gene expression analysis. Young's modulus of HTIFs was measured by aspirating a cell into the bore of a calibrated micropipette with a calibrated vacuum source. The cell-aspiration process was videotaped for subsequent data analysis to calculate the pipette bore size, the steady state pressure required to aspirate a segment of a cell into the pipette bore and the time constant for aspiration. Cytoskeleton change was monitored by rhodamine-phalloidin staining. The expression levels of β-actin was determined by quantitative RT-PCR. Total RNA was extracted with an RNeasy mini kit (QIAGen), cDNA was synthesized with SuperScriptII (Invitrogen) and quantitative PCR was carried out using 18S rRNA as an internal control (Ambion). The PCR products were separated on 2% agarose gels and pixel intensity of the bands was quantitated in Photoshop.

[5] = test system: human tendon internal fibroblast (HTIF) populated bioartificial tendons (BATs™); experiment: Material properties (modulus) of BATs; type: cell-based; conditions: IL-1β treated BATs
[6] = test system: human tendon internal fibroblast (HTIF)-populated bioartificial tendons (BATs™); experiment: Contraction of HTIF-populated BATs (scanner imaging); type: cell-based; conditions: 100 pM IL-1β; 24 h post addition
Description: as §1

cell modulus = conditions: Wu, H. W. et al., Scanning, 1998; cited from earlier work

For `Nc1ncnc2c1ncn2[C@@H]1O[C@H](COP(=O)(O)OP(=O)(O)OP(=O)(O)O)[C@@H](O)[C@H]1O` [ATP, adenosine triphosphate], the gel matrix contraction (gel matrix) was “retard gel matrix contraction”.
For interleukin-1beta [IL-1β], the “survival of maximum stretch” value ([1]; 20% elongation, 1 Hz for 1 h, day 5) was “survived the maximum stretch”, the “time for elongated BATs to recover to original length post stretch” value ([1]; after maximum stretch (20% elongation, 1 Hz, 1 h)) was 8 h and the “elasticity of BATs” value ([1]; tested on day 5) was “increased the elasticity”. The “cells with disrupted cytoskeletal structure” value (β-actin [2]; 2D cultures) was “about 20%”, the “protein level of β-actin” value (β-actin [2]; 2D cultures, day 5) was “mostly recovered” and the “fluorescence intensity of rhodamine-phalloidin staining compared to control” value (β-actin [2]; 3D bioartificial tendons, day 5) was “much lower”. For the same molecule, the “increase of intercellular space at the perpendicular direction of BATs” value (β-actin [2]; BATs, days 1 and 3) was “more than 100%”, the “protein level of β-actin” value (β-actin [2]; rhodamine-phalloidin staining) was “down regulated” and the “reduction of β-actin message” value (β-actin [3]; 2D cultures) was “more than 50%”. For the same molecule, the “reduction of β-actin message” value (β-actin [3]; 3D cultures (BATs)) was “more than 50%”, the “message level of β-actin” value (β-actin [3]; 3D cultures, day 3) was “returned to normal” and the “expression of MMPs 1, 2, 3” value (MMPs 1, 2, 3) was “up-regulated”. For the same molecule, the expression of elastin (elastin; 100 pM IL-1β, BATs, day 5) was “up-regulated”, the “expression of Collagen I” value (Collagen I) was “down-regulated” and the “reduction of cell modulus” value ([4]; HTIFs from patient one) was 62%. For the same molecule, the “reduction of cell modulus” value ([4]; HTIFs from patient two) was 45%, the “modulus of BATs” value [5] was “reduced the modulus” and the “contraction of BATs” value [6] was “reduced the contraction”.
For GRGDTP, the “stimulation of elastin mRNA by IL-1β” value (elastin; 100 μg/ml GRGDTP with 100 pM IL-1β) was “reduced its stimulation by IL-1β” and the “elastin mRNA level” value (elastin; 100 μg/ml GRGDTP, without IL-1β) was “did not affect”.
In the case of `C=C1[C@@H](C)[C@H]2[C@H](Cc3ccccc3)NC(=O)[C@]23[C@H](OC(C)=O)/C=C/[C@@](C)(O)C(=O)[C@@H](C)C/C=C/[C@H]3[C@@H]1O` [cytochalasin D], the cell modulus (cell modulus) is given as “decreased cell modulus by up to three fold”.
